Test results reported in patent publication US10525021B2, “Mitochondrial uncouplers for treatment of metabolic diseases and cancer” (RUTGERS, THE STATE UNIVERSITY OF NEW JERSEY, priority 2014, dated 2020).

Each compound was assayed on NIH-3T3 cells, or HepG2 cells (assay: Mitochondrial uncoupling activity assay (loss of mitochondrial TMRE staining in live cells)). Settings: 2 h, read-out: Activities (mitochondrial uncoupling activity, EC50).
Assay type: cell-based
Experimental: Mitochondrial uncoupling analyses in live cells were performed with cultured mammalian cells, the NIH-3T3 cells, or HepG2 cells. Cells were seeded onto 6-well plate and cultured in DMEM medium supplemented with 10% fetal bovine serum and 2 mM glutamine. Cells were allowed to grow to logarithmic growth phase prior to experiments. The cells were treated with each individual synthesized compound at various concentrations for two hours, followed by staining with TMRE (tetramethylrhodamine ethyl ester) at final concentration of 100 nM for 15 minutes. The cells were then washed once with PBS, and examined under fluorescence microscopy. A positive control of cells treated with various concentrations of niclosamide ethanolamine were used as positive control. Percentage of cells losing mitochondrial TMRE staining was used as a quantification of mitochondrial uncoupling activity.

First: O=C(Nc1cnccn1)c1cc(Cl)ccc1O [Compound 1, 5-Chloro-2-hydroxy-N-(pyrazin-2-yl)benzamide]
Second: O=C(Nc1cccnn1)c1cc(Cl)ccc1O [Compound 9, 5-Chloro-2-hydroxy-N-(pyridazin-3-yl)benzamide]
The EC50 of the first is lower: less than 10 µM for the first, greater than 50 µM for the second. The first is the more potent here.

`N#Cc1cnc(NC(=O)c2cc(Cl)ccc2O)cn1` [Compound 3, 5-Chloro-N-(5-cyanopyrazin-2-yl)-2-hydroxybenzamide] and `N#Cc1cnc(NC(=O)c2cc(Cl)ccc2OP(=O)(O)O)cn1` [Compound 19, 4-Chloro-2-((5-cyanopyrazin-2-yl)carbamoyl)phenyl dihydrogen phosphate] cannot be ordered by EC50: less than 10 µM for the first, less than 10 µM for the second.

First: N#Cc1cnc(NC(=O)c2cc(Cl)ccc2O)c(Cl)n1 [Compound 4, 5-Chloro-N-(3-chloro-5-cyanopyrazin-2-yl)-2-hydroxybenzamide]
Second: N#Cc1ccc(NC(=O)c2cc(Cl)ccc2O)nc1 [Compound 11, 5-Chloro-N-(5-cyanopyridin-2-yl)-2-hydroxybenzamide]
The EC50 of the first is higher: greater than 50 µM for the first, 10 to 50 µM for the second. The second is the more potent here.

First: O=C(Nc1cncnc1)c1cc(Cl)ccc1O [Compound 5, 5-Chloro-2-hydroxy-N-(pyrimidin-5-yl)benzamide]
Second: O=C(Nc1ccc(Cl)nn1)c1cc(Cl)ccc1O [Compound 10, 5-Chloro-N-(6-chloropyridazin-3-yl)-2-hydroxybenzamide]
The EC50 of the first is higher: greater than 50 µM for the first, 10 to 50 µM for the second. The second is the more potent here.

Compared with `CCOP(=O)(O)Oc1ccc(Cl)cc1C(=O)Nc1ccc(C#N)cc1Cl` [Compound 12, 4-Chloro-2-((2-chloro-4-cyanophenyl)carbamoyl)phenyl ethyl hydrogen phosphate], `N#Cc1ccc(NC(=O)c2cc(Cl)ccc2OP(=O)(O)O)c(Cl)c1` [Compound 13, 4-Chloro-2-((2-chloro-4-cyanophenyl)carbamoyl)phenyl dihydrogen phosphate] is lower in EC50: greater than 50 µM for the first, less than 10 µM for the second. The second is the more potent here.

`O=C(Nc1nc2c(F)cccc2s1)c1cc(Cl)ccc1O` [Compound 18, 5-Chloro-N-(4-fluorobenzo[d]thiazol-2-yl)-2-hydroxybenzamide] and `O=C(Nc1nc2c(C(F)(F)F)cccc2s1)c1cc(Cl)ccc1O` [Compound 29, 5-Chloro-2-hydroxy-N-(4-(trifluoromethyl)benzo[d]thiazol-2-yl)benzamide] cannot be ordered by EC50: less than 10 µM for the first, less than 10 µM for the second.

In the case of `O=C(Nc1nc2ccc(C(F)(F)F)cc2s1)c1cc(Cl)ccc1O` [Compound 31, 5-chloro-2-hydroxy-N-(6-(trifluoromethyl)benzo[d]thiazol-2-yl)benzamide], the EC50 is reported as less than 10 µM.

Same assay, conditions: 2 h; two-hour treatment, TMRE 100 nM staining; concentration at which mitochondrial TMRE fluorescence is reduced to about 50%; read-out: Activities (mitochondrial uncoupling activity, EC50)

`O=C(Nc1cnc(Br)cn1)c1cc(Cl)ccc1O` [Compound 2, N-(5-Bromopyrazin-2-yl)-5-chloro-2-hydroxybenzamide] and `O=C(Nc1cnc(C(F)(F)F)cn1)c1cc(Cl)ccc1O` [Compound 35, 5-chloro-2-hydroxy-N-(5-(trifluoromethyl)pyrazin-2-yl)benzamide] cannot be ordered by EC50: less than 10 µM for the first, less than 10 µM for the second.

Compared with `O=C(Nc1cnc(Cl)nc1Cl)c1cc(Cl)ccc1O` [Compound 6, 5-Chloro-N-(2,4-dichloropyrimidin-5-yl)-2-hydroxybenzamide], `O=C(Nc1cnc(Cl)nc1)c1cc(Cl)ccc1O` [Compound 7, 5-Chloro-N-(2-chloropyrimidin-5-yl)-2-hydroxybenzamide] is lower in EC50: greater than 50 µM for the first, less than 10 µM for the second.

First: N#Cc1ncc(NC(=O)c2cc(Cl)ccc2O)cn1 [Compound 8, 5-Chloro-N-(2-cyanopyrimidin-5-yl)-2-hydroxybenzamide]
Second: N#Cc1cnc(NC(=O)c2cc(Cl)ccc2O)s1 [Compound 16, 5-chloro-N-(5-cyanothiazol-2-yl)-2-hydroxybenzamide]
The EC50 of the first is higher: 10 to 50 µM for the first, less than 10 µM for the second.

Compared with `O=C(Nc1ccc2scnc2c1)c1cc(Cl)ccc1O` [Compound 15, N-(Benzo[d]thiazol-5-yl)-5-chloro-2-hydroxybenzamide], `O=C(Nc1ccc2nccnc2c1)c1cc(Cl)ccc1O` [Compound 22, 5-Chloro-2-hydroxy-N-(quinoxalin-6-yl)benzamide] is higher in EC50: less than 10 µM for the first, 10 to 50 µM for the second.

First: O=C(Nc1ccc2ccncc2c1)c1cc(Cl)ccc1O [Compound 21, 5-Chloro-2-hydroxy-N-(isoquinolin-7-yl)benzamide]
Second: N#Cc1ccc2nc(NC(=O)c3cc(Cl)ccc3O)sc2c1 [Compound 36, 5-chloro-N-(6-cyanobenzo[d]thiazol-2-yl)-2-hydroxybenzamide]
The EC50 of the first is higher: 10 to 50 µM for the first, less than 10 µM for the second. The second is the more potent here.

The compounds below were run on AMPK (assay: AMPK activation analysis by immunoblotting with antibody against phosphorylated AMPK). Settings: two-hour treatment, phospho-AMPKα (Thr172) immunoblot.
Assay type: cell-based
Experimental: AMPK activation analysis by immunoblotting assay with antibody against phosphorylated AMPK: mouse pancreatic cancer cell line, Panc02, or NIH-3T3 fibroblasts, or human liver carcinoma cell line HepG2, were cultured in Dulbecco's modified Eagle's medium (DMEM) supplemented with 10% (vol/vol) fetal bovine serum, 100 unit·ml^−1 of penicillin, 100 μg·ml^−1 of streptomycin and 0.29 mg·ml^−1 of L-glutamine at 37° C. and 5% CO2. For treatment, individual compound was first dissolved in DMSO to make stock solution, and then was added directly to the culturing medium to desired concentration by at least 1:1000 dilution. After a two-hour treatment, cells were collected and homogenized within lysis buffer containing 10 mM TRIS-HCl (pH 7.9), 10% glycerol, 0.1 mM EDTA, 100 mM KCl, 0.2% NP-40, 0.5 mM PMSF, 1 mM DTT, mini-complete protease inhibitor cocktail (Roche, 11836153001), and phosphatase inhibitor cocktail (Roche, 04906845001) if required. Nuclei and insoluble debris were pelleted in an Eppendorf micro-centrifuge at 10,000 rpm for 5 min at 4° C. Cell extracts were then stored at −20° C. or immediately subjected to sodium dodecyl sulfate-polyacrylamide gel electrophoresis (SDS-PAGE). […] Quantification was determined by measuring band intensity using ImageJ software and calculating the ratio of protein of interesting to internal loading control. […]

For `O=C(Nc1cnc(Br)cn1)c1cc(Cl)ccc1O` [Compound 2, N-(5-Bromopyrazin-2-yl)-5-chloro-2-hydroxybenzamide], the “Concentrations for AMPK activation” value was “*** (<=10 μM)”.
For `N#Cc1ccc(NC(=O)c2cc(Cl)ccc2OP(=O)(O)O)c(Cl)c1` [Compound 13, 4-Chloro-2-((2-chloro-4-cyanophenyl)carbamoyl)phenyl dihydrogen phosphate], the “Concentrations for AMPK activation” value was “*** (<=10 μM)”.

The compounds below were run on mouse colon cancer cell line MC38 (assay: Clonogenic assay for cell proliferation inhibition (colony formation)). Settings: MC-38, MC38 cells, treated 24-48 hrs, colonies counted after 2 weeks, read-out: IC50 concentrations (inhibition of colony formation).
Assay type: cell-based
Experimental: Clonogenic assay for determining activity of cell proliferation inhibition: mouse colon cancer cell line MC38 was seeded onto 6-well plates at the density of about 200 cells per well, grown under medium conditions as described above, after attachment, cells were treated with ascending concentrations of example compounds for 24-48 hrs. The drug-containing medium was then removed and fresh medium without drug was added to each well. Cells were then grown for 2 weeks for colony formation. During the two weeks, old medium was aspirated out and fresh drug-free medium was added to the wells every two days. At the end of the experiment, the colonies were counted for the treatment at each concentration. IC50 is defined as the concentration that inhibits 50% of colony formation as compared to the no drug treatment control.

For `N#Cc1ccc(NC(=O)c2cc(Cl)ccc2OP(=O)(O)O)c(Cl)c1` [Compound 14, Sodium 4-chloro-2-((2-chloro-4-cyanophenyl)carbamoyl)phenyl phosphate], the IC50 was no more than 10 µM.
